Results taken from US9221862B2, “Erythromycin ethylsuccinate crystalline hydrate, preparation and uses thereof” (priority 2011, dated 2015).

Assay: Hygroscopicity test according to CP2005 (RH 70%, 25° C.)
Assay type: physicochemical
Conditions: sampling time 48 h, 5 grams of sample
Procedure: The erythromycin ethylsuccinate crystalline hydrate according to the present invention was stable during storage. The above sample was sealed in vials and subjected to accelerated stability test at 30° C. using HPLC (C18 reverse phase column, 4.6×250 mm, 5 μm), mobile phase: 10 mmol/L sodium dodecyl sulfate solution containing 0.1% triethylamine (pH adjusted to 3.4 with phosphoric acid)—acetonitrile (55:45), detection wavelength was 205 nm, and the flow rate is 1.0 ml/min, and the change of relevant substances and content was detected. […] According to CP2005, 5 grams of the sample of the present invention was, at 25° C., placed in a relative humidity of 70% in the test for hygroscopicity. It is surprising that erythromycin ethylsuccinate hydrate leads to less hygroscopic weight gain. […] In addition, the deliquescence of anhydride makes it necessary to isolate from air during processing to prevent adhesions, while the hydrate has good sliding properties, thereby improving the operability of the formulation.

| Substance | hygroscopic weight gain %, compared to 0 h [%] |
| --- | --- |
| Erythromycin Ethylsuccinate 0.5 H2O Hydrate | 0.2 |
| Erythromycin Ethylsuccinate 0.25 H2O Hydrate | 0.59 |
